This is an account of results in patent US12371454B2, “Cyclic peptide compound having Kras inhibitory action” (priority 2019, dated 2025).

The subject of this test is Human pancreatic cancer cell line AsPC-1. The test is described as follows: Measurement of AsPC-1 cell growth inhibition (AsPC-1 CGI). The test is classed as cell-based. Particulars: 96 h. In short, it runs like this: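 AsPC-1 cells in 15% FBS RPMI-1640 were exposed to test compound for 96 hours at 37° C, with CellTiter-Glo as endpoint.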

Molecules are shown by their SMILES. pIC50: −log10 of the molar value. Positions of bridges follow the written chain, without caps; N, C: chain ends. Non-standard residues stand in square brackets, D forms with d. Residues, ends and D or L forms follow the SMILES beside them. *: point of attachment. hPhe(3-Cl-4-CF3) = N[C@@H](CCc1ccc(C(F)(F)F)c(Cl)c1)C(=O)O; hPhe(3-F,4-CF3) = N[C@@H](CCc1ccc(C(F)(F)F)c(F)c1)C(=O)O; NMePhe(4-CF3) = CN[C@@H](Cc1ccc(C(F)(F)F)cc1)C(=O)O; NMePhe(4-Me) = CN[C@@H](Cc1ccc(C)cc1)C(=O)O; NMeGly(cPent) = CN[C@H](C(=O)O)C1CCCC1; NMeCha = CN[C@@H](CC1CCCCC1)C(=O)O; cisHyp = O=C(O)[C@@H]1C[C@H](O)CN1; Hyp = O=C(O)[C@@H]1C[C@@H](O)CN1; NMeChg = CN[C@H](C(=O)O)C1CCCCC1; NMeD = CN[C@@H](CC(=O)O)C(=O)O; NMeL = CN[C@@H](CC(C)C)C(=O)O; dNMeAbu = CC[C@@H](NC)C(=O)O; d(β3hA) = C[C@@H](N)CC(=O)O; NMeA = CN[C@@H](C)C(=O)O; Piperidide = C1CCN(*)CC1; dNMeA = CN[C@H](C)C(=O)O; Ac5c = NC1(C(=O)O)CCCC1; Aze = O=C(O)[C@@H]1CCN1; Ac4c = NC1(C(=O)O)CCC1; Sar = CNCC(=O)O A value given as a limit tells only on which side of the number the result lay.

One may read the pIC50 as −log10 of the IC50, conventionally taken in molar units. `CC[C@H](C)[C@@H]1NC(=O)[C@H](CC(C)C)N(C)C(=O)C[C@@H](C(=O)N2CCCCC2)N(C)C(=O)[C@H](C2CCCCC2)N(C)C(=O)C2(CCCC2)NC(=O)[C@@H]2C[C@H](O)CN2C(=O)[C@H](CCc2ccc(C(F)(F)F)c(Cl)c2)NC(=O)CN(C)C(=O)[C@H](CC2CCCCC2)N(C)C(=O)CN(C)C(=O)CN(C)C1=O` [Compound 1374, (3S,9S,18S,21S,25S,28S,34S,36S)-3-[2-[3-chloro-4-(trifluoromethyl)phenyl]ethyl]-28-cyclohexyl-9-(cyclohexylmethyl)-36-hydroxy-21-isobutyl-7,10,13,16,22,26,29-heptamethyl-18-[(1S)-1-methylpropyl]-25-(piperidine-1-carbonyl)spiro[1,4,7,10,13,16,19,22,26,29,32-undecazabicyclo[32.3.0]heptatriacontane-31,1′-cyclopentane]-2,5,8,11,14,17,20,23,27,30,33-undecone] ([NMeL]I[Sar][Sar][NMeCha][Sar][hPhe(3-Cl-4-CF3)][cisHyp][Ac5c][NMeChg][NMeD]-Piperidide; lactam N-11) had a negative-log IC50 (pIC50) of 7.00 to 7.30. `CC[C@H](C)[C@@H]1NC(=O)[C@H](CC(C)C)N(C)C(=O)C[C@@H](C(=O)N2CCCCC2)N(C)C(=O)[C@H](C2CCCCC2)N(C)C(=O)C2(CCCC2)NC(=O)[C@@H]2C[C@@H](O)CN2C(=O)[C@H](CCc2ccc(C(F)(F)F)c(Cl)c2)NC(=O)CN(C)C(=O)[C@H](CC2CCCCC2)N(C)C(=O)CN(C)C(=O)CN(C)C1=O` [Compound 1376, (3S,9S,18S,21S,25S,28S,34S,36R)-3-[2-[3-chloro-4-(trifluoromethyl)phenyl]ethyl]-28-cyclohexyl-9-(cyclohexylmethyl)-36-hydroxy-21-isobutyl-7,10,13,16,22,26,29-heptamethyl-18-[(1S)-1-methylpropyl]-25-(piperidine-1-carbonyl)spiro[1,4,7,10,13,16,19,22,26,29,32-undecazabicyclo[32.3.0]heptatriacontane-31,1′-cyclopentane]-2,5,8,11,14,17,20,23,27,30,33-undecone] ([NMeL]I[Sar][Sar][NMeCha][Sar][hPhe(3-Cl-4-CF3)][Hyp][Ac5c][NMeChg][NMeD]-Piperidide; lactam N-11) gave a pIC50 of 6.30 to 7.00. Regarding `CC[C@@H]1C(=O)NC2(CCCC2)C(=O)N(C)[C@@H](C2CCCC2)C(=O)N(C)[C@H](C(=O)N2CCCCC2)CC(=O)N(C)[C@@H](CC(C)C)C(=O)N[C@@H]([C@@H](C)CC)C(=O)N(C)CC(=O)N(C)CC(=O)N(C)[C@@H](CC2CCCCC2)C(=O)N(C)CC(=O)N[C@@H](CCc2ccc(C(F)(F)F)c(Cl)c2)C(=O)N1C` [Compound 1439] ([NMeL]I[Sar][Sar][NMeCha][Sar][hPhe(3-Cl-4-CF3)][dNMeAbu][Ac5c][NMeGly(cPent)][NMeD]-Piperidide; lactam N-11), the pIC50 is 6.30 to 7.00. As to `CC[C@H](C)[C@@H]1NC(=O)[C@H](CC(C)C)N(C)C(=O)C[C@@H](C)NC(=O)[C@H](C2CCCC2)N(C)C(=O)C2(CCCC2)NC(=O)[C@@H]2CCCN2C(=O)[C@H](CCc2ccc(C(F)(F)F)c(Cl)c2)NC(=O)CN(C)C(=O)[C@H](Cc2ccc(C)cc2)N(C)C(=O)CN(C)C(=O)CN(C)C1=O` [Compound 1471, (3S,9S,18S,21S,25R,28S,34S)-3-[2-[3-chloro-4-(trifluoromethyl)phenyl]ethyl]-28-cyclopentyl-21-isobutyl-7,10,13,16,22,25,29-heptamethyl-18-[(1S)-1-methylpropyl]-9-(p-tolylmethyl)spiro[1,4,7,10,13,16,19,22,26,29,32-undecazabicyclo[32.3.0]heptatriacontane-31,1′-cyclopentane]-2,5,8,11,14,17,20,23,27,30,33-undecone] (cyclo([Ac5c][NMeGly(cPent)][d(β3hA)][NMeL]I[Sar][Sar][NMePhe(4-Me)][Sar][hPhe(3-Cl-4-CF3)]P)), the pIC50 is 6.30 to 7.00. The same measure for `CC[C@H](C)[C@@H]1NC(=O)[C@H](CC(C)C)N(C)C(=O)C[C@@H](C)NC(=O)[C@H](C2CCCC2)N(C)C(=O)C2(CCCC2)NC(=O)[C@@H]2CCCN2C(=O)[C@H](CCc2ccc(C(F)(F)F)c(Cl)c2)NC(=O)CN(C)C(=O)[C@H](Cc2ccc(C(F)(F)F)cc2)N(C)C(=O)[C@@H]2CCN2C(=O)[C@H](C)N(C)C1=O` [Compound 1475] (cyclo([Ac5c][NMeGly(cPent)][d(β3hA)][NMeL]I[NMeA][Aze][NMePhe(4-CF3)][Sar][hPhe(3-Cl-4-CF3)]P)): 7.00 to 7.30.

Regarding `CC[C@H](C)[C@@H]1NC(=O)[C@H](CC(C)C)N(C)C(=O)C[C@@H](C)NC(=O)[C@H](C2CCCC2)N(C)C(=O)C2(CCCC2)NC(=O)[C@@H]2CCCN2C(=O)[C@H](CCc2ccc(C(F)(F)F)c(Cl)c2)NC(=O)CN(C)C(=O)[C@H](CC2CCCCC2)N(C)C(=O)[C@@H]2CCN2C(=O)[C@H](C)N(C)C1=O` [Compound 1477] (cyclo([Ac5c][NMeGly(cPent)][d(β3hA)][NMeL]I[NMeA][Aze][NMeCha][Sar][hPhe(3-Cl-4-CF3)]P)), the pIC50 was 6.30 to 7.00.

In turn, `CC[C@H](C)[C@@H]1NC(=O)[C@H](CC(C)C)N(C)C(=O)C[C@@H](C)NC(=O)[C@H](C2CCCC2)N(C)C(=O)C2(CCCC2)NC(=O)[C@@H]2CCCN2C(=O)[C@H](CCc2ccc(C(F)(F)F)c(Cl)c2)NC(=O)[C@@H](C)N(C)C(=O)[C@H](Cc2ccc(C(F)(F)F)cc2)N(C)C(=O)[C@@H]2CCN2C(=O)[C@H](C)N(C)C1=O` [Compound 1482] (cyclo([Ac5c][NMeGly(cPent)][d(β3hA)][NMeL]I[NMeA][Aze][NMePhe(4-CF3)][dNMeA][hPhe(3-Cl-4-CF3)]P)) gave a pIC50 of 6.30 to 7.00. With `CC[C@H](C)[C@@H]1NC(=O)[C@H](CC(C)C)N(C)C(=O)C[C@@H](C)NC(=O)[C@H](CC(C)C)N(C)C(=O)C2(CCCC2)NC(=O)[C@@H]2C[C@@H](O)CN2C(=O)[C@H](CCc2ccc(C(F)(F)F)c(F)c2)NC(=O)CN(C)C(=O)[C@H](CC2CCCCC2)N(C)C(=O)CN(C)C(=O)CN(C)C1=O` [Compound 1483, (3S,9S,18S,21S,25R,28S,34S,36R)-9-(cyclohexylmethyl)-3-[2-[3-fluoro-4-(trifluoromethyl)phenyl]ethyl]-36-hydroxy-21,28-diisobutyl-7,10,13,16,22,25,29-heptamethyl-18-[(1S)-1-methylpropyl]spiro[1,4,7,10,13,16,19,22,26,29,32-undecazabicyclo[32.3.0]heptatriacontane-31,1′-cyclopentane]-2,5,8,11,14,17,20,23,27,30,33-undecone] (cyclo([Ac5c][NMeL][d(β3hA)][NMeL]I[Sar][Sar][NMeCha][Sar][hPhe(3-F,4-CF3)][Hyp])), the pIC50 was < 6.30.

The compound `CC[C@H](C)[C@@H]1NC(=O)[C@H](C)N(C)C(=O)C[C@@H](C)NC(=O)[C@H](C2CCCC2)N(C)C(=O)C2(CCCC2)NC(=O)[C@@H]2CCCN2C(=O)[C@H](CCc2ccc(C(F)(F)F)c(Cl)c2)NC(=O)CN(C)C(=O)[C@H](Cc2ccc(C)cc2)N(C)C(=O)CN(C)C(=O)CN(C)C1=O` [Compound 1485] (cyclo([Ac5c][NMeGly(cPent)][d(β3hA)][NMeA]I[Sar][Sar][NMePhe(4-Me)][Sar][hPhe(3-Cl-4-CF3)]P)) gave a pIC50 of 6.30 to 7.00. In turn, `CC[C@H](C)[C@@H]1NC(=O)[C@H](C)N(C)C(=O)C[C@@H](C)NC(=O)[C@H](C2CCCC2)N(C)C(=O)C2(CCC2)NC(=O)[C@@H]2CCCN2C(=O)[C@H](CCc2ccc(C(F)(F)F)c(Cl)c2)NC(=O)CN(C)C(=O)[C@H](Cc2ccc(C(F)(F)F)cc2)N(C)C(=O)CN(C)C(=O)CN(C)C1=O` [Compound 1486] (cyclo([Ac4c][NMeGly(cPent)][d(β3hA)][NMeA]I[Sar][Sar][NMePhe(4-CF3)][Sar][hPhe(3-Cl-4-CF3)]P)) gave a negative-log IC50 (pIC50) of 6.30 to 7.00. Turning to `CC[C@H](C)[C@@H]1NC(=O)[C@H](CC(C)C)N(C)C(=O)C[C@@H](C)NC(=O)[C@H](C2CCCC2)N(C)C(=O)C2(CCCC2)NC(=O)[C@@H]2CCCN2C(=O)[C@H](CCc2ccc(C(F)(F)F)c(Cl)c2)NC(=O)CN(C)C(=O)[C@H](Cc2ccc(C(F)(F)F)cc2)N(C)C(=O)[C@@H]2CCN2C(=O)CN(C)C1=O` [Compound 1496] (cyclo([Ac5c][NMeGly(cPent)][d(β3hA)][NMeL]I[Sar][Aze][NMePhe(4-CF3)][Sar][hPhe(3-Cl-4-CF3)]P)), the pIC50 was 7.00 to 7.30. `CC[C@H](C)[C@@H]1NC(=O)[C@H](C)N(C)C(=O)C[C@@H](C)NC(=O)[C@H](C2CCCC2)N(C)C(=O)C2(CCCC2)NC(=O)[C@@H]2CCCN2C(=O)[C@H](CCc2ccc(C(F)(F)F)c(Cl)c2)NC(=O)[C@@H](C)N(C)C(=O)[C@H](Cc2ccc(C(F)(F)F)cc2)N(C)C(=O)[C@@H]2CCN2C(=O)[C@H](C)N(C)C1=O` [Compound 1497] (cyclo([Ac5c][NMeGly(cPent)][d(β3hA)][NMeA]I[NMeA][Aze][NMePhe(4-CF3)][dNMeA][hPhe(3-Cl-4-CF3)]P)) showed a pIC50 of 6.30 to 7.00.

As to `CC[C@H](C)[C@@H]1NC(=O)[C@H](CC(C)C)N(C)C(=O)C[C@@H](C)NC(=O)[C@H](C2CCCC2)N(C)C(=O)C2(CCCC2)NC(=O)[C@@H]2CCCN2C(=O)[C@H](CCc2ccc(C(F)(F)F)c(Cl)c2)NC(=O)CN(C)C(=O)[C@H](CC2CCCCC2)N(C)C(=O)[C@@H]2CCN2C(=O)CN(C)C1=O` [Compound 1499] (cyclo([Ac5c][NMeGly(cPent)][d(β3hA)][NMeL]I[Sar][Aze][NMeCha][Sar][hPhe(3-Cl-4-CF3)]P)), the pIC50 is 6.30 to 7.00.

As for `CC[C@H](C)[C@@H]1NC(=O)[C@H](CC(C)C)N(C)C(=O)C[C@@H](C)NC(=O)[C@H](C2CCCC2)N(C)C(=O)C2(CCCC2)NC(=O)[C@@H]2CCCN2C(=O)[C@H](CCc2ccc(C(F)(F)F)c(Cl)c2)NC(=O)[C@@H](C)N(C)C(=O)[C@H](Cc2ccc(C)cc2)N(C)C(=O)[C@@H]2CCN2C(=O)[C@H](C)N(C)C1=O` [Compound 1504] (cyclo([Ac5c][NMeGly(cPent)][d(β3hA)][NMeL]I[NMeA][Aze][NMePhe(4-Me)][dNMeA][hPhe(3-Cl-4-CF3)]P)), the pIC50 was 6.30 to 7.00. Then `CC[C@H](C)[C@@H]1NC(=O)[C@H](C)N(C)C(=O)C[C@@H](C)NC(=O)[C@H](C2CCCC2)N(C)C(=O)C2(CCCC2)NC(=O)[C@@H]2CCCN2C(=O)[C@H](CCc2ccc(C(F)(F)F)c(Cl)c2)NC(=O)CN(C)C(=O)[C@H](Cc2ccc(C(F)(F)F)cc2)N(C)C(=O)[C@@H]2CCN2C(=O)[C@H](C)N(C)C1=O` [Compound 1512] (cyclo([Ac5c][NMeGly(cPent)][d(β3hA)][NMeA]I[NMeA][Aze][NMePhe(4-CF3)][Sar][hPhe(3-Cl-4-CF3)]P)), with 7.00 to 7.30.
